# Measurements: article PMC7419507, “In vitro Cas9-assisted editing of modular polyketide synthase genes to produce desired natural product derivatives” (Nature Communications, 2020)
# Where “and” joins values, the source holds several entries; their conditions need not be identical. Equal entries are not always repeated.
# Assays:
# Type in all cases: cell-based
# [1] = tested on: Jurkat, SKOV-3 and MESO-1 cells; assay: Cytotoxicity assay, statements for all tested cell lines together
# Procedure: (§1) Jurkat cells were cultured in RPMI1640 medium supplemented with 10% foetal bovine serum, penicillin (50 U/ml), streptomycin (50 μg/ml), and Glutamax. SKOV-3 cells were cultured in DMEM medium supplemented with 10% fetal bovine serum, penicillin (50 U/ml), and streptomycin (50 μg/ml). MESO-1 cells were cultured in RPMI1640 medium supplemented with 10% fetal bovine serum, penicillin (50 U/ml), and streptomycin (50 μg/ml). All cell lines were seeded in a 384-well plate at a density of 1000 cells/well in 20 μl of media and incubated at 37 °C in a humidified incubator with 5% CO2. After 4 h, 2-fold dilution samples resolved in DMSO were added to the cell culture at the concentration of 0.5% (0.1 μl) and incubated for 72 h. Cell viabilities were measured using a CellTiter-Glo luminescent cell viability assay and EnVision multilabel plate reader.
# [2] = tested on: malignant pleural mesothelioma MESO-1 cells; assay: Cytotoxicity assay (CellTiter-Glo, 72 h), MESO-1; conditions: raw replicate data
# Procedure: as §1
# [3] = tested on: human ovarian adenocarcinoma SKOV-3 cells; assay: Cytotoxicity assay (CellTiter-Glo, 72 h), SKOV-3; conditions: raw replicate data
# Procedure: as §1
# T lymphoma Jurkat cells = assay: Cytotoxicity assay (CellTiter-Glo, 72 h), Jurkat; conditions: raw data (replicates)
# Procedure: as §1
# FKBP12 and mTOR = target: T1, FKBP12 and mTOR (Homo sapiens, UniProt P42345+P62942); assay: Fluoppi analysis: induction of FKBP12-mTOR complex formation in transfected HeLa cells; conditions: for Foci intensity: raw data, one replicate per line
# T1 construct: host or cells: HeLa cells
# T1 sequence (P42345 2025-2114 limits assumed): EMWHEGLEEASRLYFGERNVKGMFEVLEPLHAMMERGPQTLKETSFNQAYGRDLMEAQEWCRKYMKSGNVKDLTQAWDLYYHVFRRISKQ
# T1 sequence (P62942 whole entry): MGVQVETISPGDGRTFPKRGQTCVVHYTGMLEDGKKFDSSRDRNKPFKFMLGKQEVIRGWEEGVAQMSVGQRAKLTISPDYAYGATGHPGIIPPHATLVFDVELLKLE
# Procedure: Fluoppi harbours a tetrameric fluorescent protein hAG tag and an oligomeric assembly helper Ash tag to create detectable fluorescent foci in cells when there are interactions between two proteins fused to each tag[32].
# HeLa cells were maintained in DMEM (Fujifilm Wako, Osaka, Japan) supplemented with 10% FBS (Thermo Fisher Scientific, MA, USA) and 1% of Penicillin-Streptomycin (Thermo Fisher Scientific) in a humidified incubator with 5% CO2 at 37 °C. Harvested cells were plated at 1 × 10^6 cells/well in 6-well plate and incubated for 6 h. Then each 1.25 µg of phAG-mTOR and pAsh-FKBP12 (Medical and Biological Laboratories Co., Ltd., Aichi, Japan) was co-transfected with Lipofectamine 2000 reagent (Thermo Fisher Scientific) overnight. Next day, transfected cells were harvested and seeded in 384-well optical-bottom microplate (PerkinElmer, MA, USA) at a density of 3000 cells/well. After the 24 h incubation at 37 °C, cells were treated with different concentrations of compounds for 1 h. Cells were then fixed with 4% paraformaldehyde and stained with 1 µg/ml of Hoechst33342 (Thermo Fisher Scientific). Cell images of 9 visual fields/well were acquired with ×20 objective lens in Opera Phenix High-Content Screening System (PerkinElmer) and analysed by Harmony4.9 software (PerkinElmer). Because protein-protein interactions are quantified by measuring the aggregation of fluorescent elements in foci, fluorescent intensity in foci was normalised by total fluorescent intensity in each cell. EC50 values were calculated using TIBCO Spotfire 10.3 software (PerkinElmer).
structure (smiles),measurement,setting,value
"COc1cc([C@@H]2c3cc4c(cc3[C@@H](O[C@@H]3O[C@@H]5CO[C@@H](C)O[C@H]5[C@H](O)[C@H]3O)[C@H]3COC(=O)[C@H]23)OCO4)cc(OC)c1O [etoposide, reference compound]","Effect on cell viability, in words","[1]; Jurkat, SKOV-3 and MESO-1 cells, 72 h",typical cytotoxic activities
COC1CC2CCC(C)C(O)(O2)C(=O)C(=O)N2CCCCC2C(=O)OC(C(C)CC2CCC(O)C(OC)C2)CC(O)CC(=O)C(C)CC(C)C=CC=CC=C1C (centres unmarked) [Compound 11],MESO1 viability (%),[2]; conc 9.53674e-5 uM,103.9% and 103.5% and 98.5%
same,MESO1 viability (%),[2]; conc 0.000190735 uM,96.6% and 99.4% and 97.9%
same,MESO1 viability (%),[2]; conc 0.00038147 uM,98.3% and 99.6% and 101.3%
same,MESO1 viability (%),[2]; conc 0.000762939 uM,105.2% and 96.5% and 100.7%
same,MESO1 viability (%),[2]; conc 0.00152588 uM,101.4% and 100.3% and 96.4%
same,MESO1 viability (%),[2]; conc 0.00305176 uM,100.9% and 90.0% and 104.4%
same,MESO1 viability (%),[2]; conc 0.00610352 uM,103.9% and 99.7% and 97.3%
same,MESO1 viability (%),[2]; conc 0.012207 uM,100.4% and 97.8% and 98.7%
same,MESO1 viability (%),[2]; conc 0.0244141 uM,97.0% and 101.2% and 106.3%
same,MESO1 viability (%),[2]; conc 0.0488281 uM,98.5% and 98.3% and 96.0%
same,MESO1 viability (%),[2]; conc 0.0976562 uM,105.6% and 104.1% and 98.8%
same,MESO1 viability (%),[2]; conc 0.195312 uM,98.6% and 98.7% and 91.4%
same,MESO1 viability (%),[2]; conc 0.390625 uM,103.9% and 97.5% and 98.1%
same,MESO1 viability (%),[2]; conc 0.78125 uM,94.8% and 90.3% and 84.8%
same,MESO1 viability (%),[2]; conc 1.5625 uM,93.0% and 93.7% and 91.6%
same,MESO1 viability (%),[2]; conc 3.125 uM,84.8% and 80.8% and 88.7%
same,MESO1 viability (%),[2]; conc 6.25 uM,89.0% and 88.1% and 84.7%
same,MESO1 viability (%),[2]; conc 12.5 uM,82.3% and 77.8% and 85.2%
same,MESO1 viability (%),[2]; conc 25 uM,76.7% and 80.1% and 74.6%
same,MESO1 viability (%),[2]; conc 50 uM,57.9% and 55.6% and 52.8%
same,SKOV3 viability (%),[3]; conc 9.53674e-5 uM,103.0% and 111.8% and 102.7%
same,SKOV3 viability (%),[3]; conc 0.000190735 uM,100.4% and 96.2% and 95.8%
same,SKOV3 viability (%),[3]; conc 0.00038147 uM,103.1% and 104.5% and 105.0%
same,SKOV3 viability (%),[3]; conc 0.000762939 uM,97.9% and 100.1% and 100.0%
same,SKOV3 viability (%),[3]; conc 0.00152588 uM,106.4% and 105.2% and 101.9%
same,SKOV3 viability (%),[3]; conc 0.00305176 uM,98.6% and 97.0% and 99.4%
same,SKOV3 viability (%),[3]; conc 0.00610352 uM,109.3% and 103.3% and 106.5%
same,SKOV3 viability (%),[3]; conc 0.012207 uM,99.6% and 97.7% and 101.2%
same,SKOV3 viability (%),[3]; conc 0.0244141 uM,103.3% and 106.1% and 104.6%
same,SKOV3 viability (%),[3]; conc 0.0488281 uM,98.5% and 100.3% and 98.3%
same,SKOV3 viability (%),[3]; conc 0.0976562 uM,105.4% and 104.9% and 104.3%
same,SKOV3 viability (%),[3]; conc 0.195312 uM,95.0% and 97.7% and 100.1%
same,SKOV3 viability (%),[3]; conc 0.390625 uM,104.0% and 107.6% and 105.3%
same,SKOV3 viability (%),[3]; conc 0.78125 uM,100.0% and 99.8% and 98.6%
same,SKOV3 viability (%),[3]; conc 1.5625 uM,98.3% and 102.6% and 98.7%
same,SKOV3 viability (%),[3]; conc 3.125 uM,98.0% and 99.6% and 88.9%
same,SKOV3 viability (%),[3]; conc 6.25 uM,95.1% and 93.6% and 91.3%
same,SKOV3 viability (%),[3]; conc 12.5 uM,92.5% and 90.6% and 91.1%
same,SKOV3 viability (%),[3]; conc 25 uM,91.0% and 92.9% and 94.1%
same,SKOV3 viability (%),[3]; conc 50 uM,83.8% and 79.2% and 82.0%
same,Concentration at which cytotoxic activities were shown,"[1]; against the tested cell lines (Jurkat, SKOV-3, MESO-1)",over 10 µM
same,Jurkat viability (%),T lymphoma Jurkat cells; conc 9.53674e-5 uM,99.6% and 105.7% and 104.8%
same,Jurkat viability (%),T lymphoma Jurkat cells; conc 0.000190735 uM,102.5% and 104.1% and 102.4%
same,Jurkat viability (%),T lymphoma Jurkat cells; conc 0.00038147 uM,103.5% and 109.4% and 98.8%
same,Jurkat viability (%),T lymphoma Jurkat cells; conc 0.000762939 uM,99.9% and 101.1% and 97.3%
same,Jurkat viability (%),T lymphoma Jurkat cells; conc 0.00152588 uM,100.9% and 100.4% and 103.9%
same,Jurkat viability (%),T lymphoma Jurkat cells; conc 0.00305176 uM,102.0% and 103.4% and 101.1%
same,Jurkat viability (%),T lymphoma Jurkat cells; conc 0.00610352 uM,100.0% and 104.2% and 103.2%
same,Jurkat viability (%),T lymphoma Jurkat cells; conc 0.012207 uM,106.8% and 106.3% and 106.1%
same,Jurkat viability (%),T lymphoma Jurkat cells; conc 0.0244141 uM,104.8% and 107.2% and 106.6%
same,Jurkat viability (%),T lymphoma Jurkat cells; conc 0.0488281 uM,97.2% and 96.3% and 106.5%
same,Jurkat viability (%),T lymphoma Jurkat cells; conc 0.0976562 uM,106.1% and 104.1% and 111.0%
same,Jurkat viability (%),T lymphoma Jurkat cells; conc 0.195312 uM,100.5% and 100.4% and 103.3%
same,Jurkat viability (%),T lymphoma Jurkat cells; conc 0.390625 uM,100.9% and 100.4% and 105.6%
same,Jurkat viability (%),T lymphoma Jurkat cells; conc 0.78125 uM,94.7% and 91.5% and 97.0%
same,Jurkat viability (%),T lymphoma Jurkat cells; conc 1.5625 uM,93.8% and 86.6% and 86.2%
same,Jurkat viability (%),T lymphoma Jurkat cells; conc 3.125 uM,76.9% and 80.2% and 77.8%
same,Jurkat viability (%),T lymphoma Jurkat cells; conc 6.25 uM,68.8% and 66.4% and 70.4%
same,Jurkat viability (%),T lymphoma Jurkat cells; conc 12.5 uM,58.6% and 56.1% and 57.5%
same,Jurkat viability (%),T lymphoma Jurkat cells; conc 25 uM,45.9% and 41.4% and 49.3%
same,Jurkat viability (%),T lymphoma Jurkat cells; conc 50 uM,12.3% and 11.6% and 15.7%
same,"PPI-inducing (binding enhancing) activity between FKBP12 and mTOR compared with rapamycin (1), in words",FKBP12 and mTOR; Fluoppi,completely lost the ability to induce the formation of FKBP12-mTOR complex
same,Foci intensity,FKBP12 and mTOR; conc 9.53674e-5 uM,0.02286 and 0.01106 and 0.01492
same,Foci intensity,FKBP12 and mTOR; conc 0.000190735 uM,0.009983 and 0.01574 and 0.02887
same,Foci intensity,FKBP12 and mTOR; conc 0.00038147 uM,0.01899 and 0.01621 and 0.01221
same,Foci intensity,FKBP12 and mTOR; conc 0.000762939 uM,0.002009 and 0.003868 and 0.01862
same,Foci intensity,FKBP12 and mTOR; conc 0.00152588 uM,0.02126 and 0.01678 and 0.003092
same,Foci intensity,FKBP12 and mTOR; conc 0.00305176 uM,0.0138 and 0.01691 and 0.01576
same,Foci intensity,FKBP12 and mTOR; conc 0.00610352 uM,0.03172 and 0.01801 and 0.0222
same,Foci intensity,FKBP12 and mTOR; conc 0.012207 uM,0.01093 and 0.01362 and 0.01381
same,Foci intensity,FKBP12 and mTOR; conc 0.0244141 uM,0.01964 and 0.01491 and 0.01835
same,Foci intensity,FKBP12 and mTOR; conc 0.0488281 uM,0.004003 and 0.01339 and 0.01507
same,Foci intensity,FKBP12 and mTOR; conc 0.0976562 uM,0.01375 and 0.009337 and 0.02775
same,Foci intensity,FKBP12 and mTOR; conc 0.195312 uM,0.0177 and 0.02519 and 0.008414
same,Foci intensity,FKBP12 and mTOR; conc 0.390625 uM,0.01709 and 0.006803 and 0.01525
same,Foci intensity,FKBP12 and mTOR; conc 0.78125 uM,0.01284 and 0.02644 and 0.03084
same,Foci intensity,FKBP12 and mTOR; conc 1.5625 uM,0.02173 and 0.02485 and 0.03636
same,Foci intensity,FKBP12 and mTOR; conc 3.125 uM,0.02309 and 0.03313 and 0.02928
same,Foci intensity,FKBP12 and mTOR; conc 6.25 uM,0.01525 and 0.02728 and 0.02945
same,Foci intensity,FKBP12 and mTOR; conc 12.5 uM,0.02884 and 0.0389 and 0.01245
same,Foci intensity,FKBP12 and mTOR; conc 25 uM,0.03878 and 0.02312 and 0.004037
same,Foci intensity,FKBP12 and mTOR; conc 50 uM,0.02187 and 0.0201 and 0.02169
